Row | melting point | Compound
1 | 68 to 71 °C | N[C@H]1CC[C@H](N)CC1
2 | 153 °C | CC1=C(C(=O)OCC(C)C)C(c2ccccc2)NC(=S)N1 (configuration not stated)
3 | 44 °C | Cc1cc(C)cc(CC#N)c1
4 | 64 °C | CC1(C)CC(NCCCCCCNC2CC(C)(C)NC(C)(C)C2)CC(C)(C)N1
5 | 123 to 124 °C | COc1ccc(C=C2C3=C(CCCC3)OC3=C2CCCC3)cc1
6 | 130 °C | O=C(O)Cc1cccc(I)c1
7 | 154 to 158 °C | CN1C(=O)Cc2cc(S(=O)(=O)Cl)ccc21
8 | 46 °C | Nc1ccccc1N1CCCCC1
9 | 150 °C | CCNc1cc(=O)oc2ccccc12
10 | 29 °C | COC(=O)Oc1c(F)c(F)c(F)c(F)c1F
11 | 204 °C | CC1C(=O)C23C4CC5C(C)(C)CCC(O)C56COC(CC1C2OC(C)(C)O4)C63 (configuration not stated)
12 | 70 °C | CCN1CN(CC)CN(CC)C1
13 | 340 °C | O=C1c2ccc(O)c(O)c2C(=O)c2ccc(O)c(O)c21
14 | 160 °C | Brc1cc(Br)c(Br)c(Br)c1Br
15 | 163 °C | OCCN(CCO)c1nc(N2CCCCC2)c2nc(N(CCO)CCO)nc(N3CCCCC3)c2n1
16 | 36 to 38 °C | O=C(Cl)c1cccc2c1OCCCO2
17 | 99 to 101 °C | CC(C)(C)OC(=O)N1CCC(Oc2ccc([N+](=O)[O-])cc2)CC1
18 | 108 °C | CC(=O)Oc1ccccc1C(=O)OCC(=O)N(C(C)C)C(C)C
19 | 144 to 145 °C | COc1cc(C(=O)c2ccc(-c3ccccc3)cc2)c([N+](=O)[O-])cc1OC
20 | 178 to 180 °C | COC(=O)c1ccccc1-n1c(SC)nc2ccccc2c1=O
21 | 118 °C | CC12CCC(C1(C)C)C(CC(Br)=Cc1ccccc1)(C1(CC(Br)=Cc3ccccc3)C(=O)C3(C)CCC1C3(C)C)C2=O (configuration not stated)
22 | 170 °C | CC(=O)C1CCC2C3C=CC4=CC(=O)CCC4(C)C3CCC12C (configuration not stated)

Row | melting point | Compound
23 | 258 to 262 °C | CCCC(C)(N)P(=O)(O)O (configuration not stated)
24 | 111 to 113 °C | COc1ccc(N=C(S)SC)cc1
25 | 125 to 128 °C | CC1=NN(c2cccc(Cl)c2)C(=O)C1
26 | 45 to 50 °C | C=C(C)C(=O)OCCC(F)(F)C(F)(F)C(F)(F)C(F)(F)C(F)(F)C(F)(F)C(F)(F)C(F)(F)C(F)(F)C(F)(F)F
27 | 39 to 40 °C | NCc1cc2cc(Br)ccc2o1
28 | 79 °C | O=S(=O)(Cl)c1ccc(Br)cc1Cl
29 | 201 to 203 °C | Cc1ccc(C)c(N/N=C(/C#N)c2nc(C)c(/N=N/c3ccccc3)s2)c1
30 | 58 °C | O=Cc1ccc2nonc2c1
31 | 128 °C | O=C(O)COCCN1C(=O)c2ccccc2C1=O
32 | 227 °C | O/N=C1/CC(c2ccccc2)Cc2ccncc21 (configuration not stated)
33 | 283 °C | Nc1nn2c(C(F)(F)F)cc(=O)[nH]c2c1/N=N/c1ccccc1
34 | -45 °C | FC(F)(F)C(F)(F)C(F)(F)C(F)(F)C(F)(F)C(F)(F)I
35 | 94.5 °C | O=C(O)C(F)(F)C(F)(F)C(F)(F)C(=O)O
36 | 31 °C | FC(F)(F)c1cc(CCl)cc(C(F)(F)F)c1
37 | -74.7 °C | CCCC#CCCCCCC
38 | 194 °C | NC(=O)C1CCCN1C(=O)COC(=O)c1ccccc1 (configuration not stated)
39 | 49 to 49.5 °C | CCCCc1ccc(/N=N/c2ccc(O)cc2)cc1
40 | 138 to 142 °C | CC(/C=C(C)/C=C/c1ccccc1)=NNS(=O)(=O)c1ccc(C)cc1
41 | 167 °C | O=C1OC(c2ccccc2)=NC1=Cc1cccs1
42 | 180 to 185 °C | CCOC(=O)Oc1c(OC)cc(C(=O)O)cc1OC
43 | 57 to 59 °C | COC(=O)c1sccc1N=C=S
44 | 97 °C | Sc1ccc(S)cc1

Row | melting point | Compound
45 | 186 °C | Cc1ccc(-c2csc3nc(C(F)(F)F)cc(=O)n23)cc1
46 | 69 °C | CC[C@H](C)[C@H](NC(=O)OC(C)(C)C)C(=O)O
47 | 127 °C | O=Cc1ccc(O)c(Br)c1
48 | 88 to 91 °C | NC(=S)CSc1ccccc1
49 | 126 °C | OC1c2ccccc2C=Cc2ccccc21
50 | 100 °C | O=C(O)C(CBr)CBr
51 | 180 °C | NS(=O)(=O)c1ccc(C(F)(F)F)cc1
52 | 90 °C | O=C(O)C(Cc1ccccc1)Cc1ccccc1
53 | 68 °C | C=C(Br)C(=O)O
54 | 106 to 107 °C | N#CCc1nc(-c2ccc(Cl)c(Cl)c2)cs1
55 | 233 to 235 °C | Cc1nc(C)c(C(=O)O)s1
56 | 120 to 125 °C | O=S(=O)(NO)c1ccccc1
57 | 98.5 °C | CC(C)(Oc1ccccc1)C(=O)O
58 | 125 to 126 °C | CC(=O)OC[C@H]1O[C@@H](Oc2ccc(C)cc2)[C@H](OC(C)=O)[C@@H](OC(C)=O)[C@@H]1OC(C)=O
59 | 200 °C | CCOC(=O)c1c(NS(=O)(=O)c2ccc(Cl)cc2)nn(-c2ccc([N+](=O)[O-])cc2)c1N
60 | 29 °C | O=C(Cl)c1cc(I)ccc1F
61 | 151 °C | O=c1/c(=C/c2ccc3c(c2)OCO3)sc2n1CCCN=2
62 | 237 to 240 °C | O=C(O)c1ccnnc1
63 | 236 °C | O=C1OC(c2ccc([N+](=O)[O-])cc2)=NC1=Cc1ccccc1
64 | 226 °C | c1ccc2c(c1)ccc1nc3c(ccc4ccccc43)cc12
65 | 61 °C | O=[N+]([O-])c1ccc(Br)c(Cl)c1
66 | 98 °C | Cc1ccccc1NC(=O)c1cncc(Cl)n1

Row | melting point | Compound
67 | 282 °C | Cc1ccc(NC=C2C(=O)NN=C2c2c(O)c3ccccc3n(C)c2=O)cc1
68 | 37 °C | CCOC(=O)c1cc(C)n(Cc2ccccc2)n1
69 | 35 to 36 °C | O=C=Nc1ccc(Cl)c(C(F)(F)F)c1
70 | 59 to 61 °C | COC(=O)c1ccc(OC)c(OC2CCCC2)c1
71 | 165 °C | COc1cc(C2Nn3c(nnc3-c3cccc([N+](=O)[O-])c3)S2)ccc1O (configuration not stated)
72 | 85 to 87 °C | O=Cc1csnn1
73 | 88 to 102 °C | Cc1cc2ccccc2cc1CBr
74 | 127 to 129 °C | CC(C)(C)OC(=O)N1CCN(c2cc(C#N)ccn2)CC1
75 | 115 to 117 °C | BrC(=C(c1ccccc1)c1ccccc1)c1ccccc1
76 | 161 °C | CCOC(=O)c1cc2cc3ccccc3cc2cc(C(=O)OCC)c1=O
77 | 89 to 91 °C | Cc1cc(Cl)ccc1Oc1ncccc1[N+](=O)[O-]
78 | 228 °C | CCNc1nc(Cl)nc(NCC(=O)OCC)n1
79 | 217 °C | O=C(Oc1ccc(Cl)cc1Cl)c1ccc(C(=O)Oc2ccc(Cl)cc2Cl)cc1
80 | 45 °C | COc1cccc(CCC(=O)O)c1
81 | 131 °C | COC(=O)c1cccc([N+](=O)[O-])c1O
82 | 88 to 92 °C | OCC1OC(O)C(O)C1O (configuration not stated)
83 | 130 to 133 °C | CCOC(=O)c1[nH]c2ccccc2c1C
84 | 252 to 256 °C | Cc1c(S(=O)(=O)c2ccc(Cl)cc2)csc1C(=O)O
85 | 102 to 103 °C | CCOC(=O)Nc1cccc([N+](=O)[O-])c1[N+](=O)[O-]
86 | 240 to 245 °C | O=C(O)CN(CCOCCOCCN(CC(=O)O)CC(=O)O)CC(=O)O
87 | 167 °C | COc1ccc(-c2nnc3n2NC(c2ccc(N(C)C)cc2)S3)cc1 (configuration not stated)
88 | 200 °C | CC(C)(C)N(NC(=O)c1ccccc1)C(=O)c1ccc(C#N)cc1

Row | melting point | Compound
89 | 269 °C | CC12C=CC(=O)C=C1CCC1C3CC(O)C(O)(C(=O)CO)C3(C)CC(O)C12F (configuration not stated)
90 | 123 to 125 °C | Oc1nsc(SCc2ccccc2)n1
91 | 280 °C | CC(C)(C)C(=O)Nc1ncccc1C(=O)O
92 | 135 °C | S=C(NCCc1ccccc1)Nc1ccccc1
93 | 60 °C | NNc1ccccc1C(F)(F)F
94 | 24.5 °C | CC(C)(O)CCc1ccccc1
95 | 82.2 to 83.5 °C | CC(C)(C)OC(=O)C(C(=O)Cc1ccccc1)c1ccccc1 (configuration not stated)
96 | 95 °C | O=C(NCO)c1ccccc1
97 | -75 °C | C=C(C)C(=O)OCCCC
98 | 180 °C | O=C(O)c1cc([N+](=O)[O-])ccc1Br
99 | 41 °C | CCS(=O)(=O)c1ccc(F)cc1
100 | 156 °C | O=CNNC=O
101 | 270 °C | O=C(Nc1ccc(Cl)cc1)Nc1ccc(Cl)cc1
102 | 15 °C | Cc1ccccc1S
103 | 88 °C | CN1CCCN(CC#N)CCN(CC#N)CCCN(CC#N)CC1
104 | 124 to 125 °C | Cc1nc(CC(=O)O)cs1
105 | 214 to 215 °C | C(=C1c2ccccc2C2C1OC1/C(=C\c3ccccc3)c3ccccc3C12)c1ccccc1 (configuration not stated)
106 | 232 to 233 °C | O=[N+]([O-])c1ccc(-n2cc[nH]c2=S)cc1
107 | 95 °C | CC(=O)CCc1cc2c(cc1[N+](=O)[O-])CCC(C)N2 (configuration not stated)

Row | Compound | melting point
108 | CNC(=O)C(C)SCCSP(=O)(OC)OC (configuration not stated) | 43 °C
109 | NNC(=O)c1cccnc1 | 162 °C
110 | Cc1ccc([N+](=O)[O-])c(CCl)c1 | 41 to 47 °C
111 | CC(=O)Oc1ccc2c3c1OC1C(OC(C)=O)C=CC4C(C2)N(C)CCC341 (configuration not stated) | 173 °C
112 | FC(F)C(F)F | -89 °C
113 | Cc1ccccc1NN=C1C(=O)NC(=O)NC1=O | 265 °C
114 | COC(=O)C(C)(C)C1=CCC2(C)C(CCC3C4CCC(O)C4(C)CCC32)C1 (configuration not stated) | 150 °C
115 | CC(C)(C)N(NC(=O)c1ccccc1)C(=O)c1ccccc1 | 178 °C
116 | BrC(Br)c1ccc(C(Br)Br)cc1 | 170 to 173 °C
117 | CC1CC(=O)CC2CCC3C4CCC(O)C4(C)CCC3C12C (configuration not stated) | 204 °C
118 | CCCCCC(N)P(=O)(O)O (configuration not stated) | 265 to 268 °C
119 | COc1ccc(CC2NCC(O)C2OC(C)=O)cc1 (configuration not stated) | 141 °C
120 | IC(I)=C(I)I | 187 °C
121 | ClCCc1ccccc1 | -60 °C
122 | Cc1ccc(O)c2ccccc12 | 85.8 °C
123 | CC(C)C(C(=O)OC(C#N)c1cccc(Oc2ccccc2)c1)c1ccc(Cl)cc1 (configuration not stated) | 60 °C
124 | CCOc1cc2c(cc1OC)CCNC2CC(C)C (configuration not stated) | 151 °C
125 | CN1CCc2cc(O)c(O)cc2C1 | 255 °C
126 | CC12CCC(=O)C=C1CCC1C2CCC2(C)C(O)CCC12 (configuration not stated) | 153 °C
127 | CN(C)CCc1c[nH]c2ccc(O)cc12 | 146 °C

Source: a melting point compilation (Tetko et al.)
